# Source: US20230190870A1, “Method for Treating Lysosomal Storage Diseases with Histatin Peptides” (THE BOARD OF TRUSTEES OF THE UNIVERSITY OF ILLINOIS, priority 2020, published 2023)
# Entries after “also recorded” stand apart in the source; their conditions may differ. Square brackets hold non-standard residues; d marks the D form. Peptide text beside a SMILES is read from it. pS = N[C@@H](COP(=O)(O)O)C(=O)O
# Key:
# [1] = tested on: mouse cerebellar tissue (NPC mouse model); assay: Lipid levels in Hst1-treated NPC mouse cerebellar tissue
# From the text: In this respect, in addition to reducing the accumulation of cholesterol in liver tissue, histatin peptides may also be used to alter fatty acid and cholesterol metabolism in neuronal tissue thereby reducing changes associated with neurodegeneration.
# [2] = target: T1, Synthetic TMEM97 (144-176) (Homo sapiens, UniProt Q5BJF2); assay: Surface plasmon resonance, immobilized synthetic TMEM97 (144-176); type: binding; conditions: SPR
# T1 construct: made in house; host or cells: chemical solid-phase synthesis (Fmoc, Wang resin)
# Procedure: (§1) Surface Plasmon Resonance (SPR). Recombinant full-length TMEM97 (also called MAC30, from HEK293 cells) and GST-TMEM97 (108-176, recombinant GST-C terminal from wheat germ) proteins were purchased from OriGene (Rockville, Md.) and Abnova (Taipei City, Taiwan), respectively. Three peptides, TMEM97 (108-176), TMEM97 (108-143) and TMEM97 (144-176), were synthesized. All proteins and peptides were initially prepared in HBS buffer containing 10 mM HEPES, pH 7.4, 150 mM NaCl, and 0.05% surfactant P20. The CM5 sensor surface was first activated by 1-ethyl-3-(3-dimethylaminopropyl) carbodiimide hydrochloride (EDC)/N-hydroxy succinimide (NHS) mixture using a Biacore T200 or Biacore 8K instrument (GE Healthcare). […] Flow channels 1 and 3 were used as references.
# (§2) The three synthesized peptides were diluted to 50 μg/mL in 10 mM sodium acetate at pH 4.0 and immobilized to flow channels 2, 3 and 4, respectively, on another sensor chip. The unmodified surfaces on a flow channel 1 were used as a reference control. Histatin solutions with a series of increasing concentrations (0.78-25 μM at 2-fold dilution) were applied to all four channels at a 30 μL/minute flow rate at 25° C. The data were double-referenced with reference channel and zero concentration responses, and reference subtracted sensorgrams were fitted with 1 to 1 Langmuir kinetic model using a Biacore T200 evaluation software V3.0 or Insight evaluation software. The equilibrium dissociation constants ([…]) were determined from two rate constants (KD=kd/ka).
# (§3) To determine more precisely which segment of TMEM97 is necessary for binding of Hst1, multiple synthetic fragments of TMEM97 were generated (Table 6) and binding to Hst1 was tested using SPR. […] Smaller fragments of the C-terminal of TMEM97 were then constructed to represent the (predicted) luminal (108-143) and cytoplasmic (144-176) exposed segments of the C-terminus of TMEM97 based on modeling experiments previously described. […] SPR results for Hst1 were confirmed using ITC as an orthogonal analytical method.
# (§4) To determine the region(s) of Hst1 that mediate binding to TMEM97, SPR testing was performed with various Hst1 fragments and either recombinant TMEM97 (GST-tagged, wheat-germ derived, C-terminal fragment TMEM97 (108-176)) or synthesized TMEM97 (TMEM97 (108-176), TMEM97 (108-143) and TMEM97 (144-176)).
# [3] = tested on: Synthetic TMEM97 (144-176); assay: as above; type: binding; conditions: mutations E170A, E171A and E170A/E171A of TMEM97 (144-176)
# Procedure: as §1, §2, §3, §4
# [4] = tested on: human corneal epithelial (HCE) cells; assay: Boyden chamber cell migration assay; type: cell-based
# Procedure: Transfection/Knock-Down of TMEM97. Sub-confluent monolayers of HCE cells in grown in 35-mm six-well plates were transfected with reaction mixtures composed of 100 pmol of small interfering RNA (siRNA) to TMEM97 (Santa Cruz Biotechnology; Dallas, Tex.) for 48 hours and 5 μL of transfection reagent sold under the tradename LIPOFECTAMINE® 2000 (Invitrogen; Carlsbad, Calif.) in culture medium sold under the tradename OPTI-MEMO media (Gibco Life Technologies; Grand Island, N.Y.). Complexes were incubated for 20 minutes at 24° C. and then added to cells at 37° C. Incubation was continued for 24 to 48 hours at 37° C. in 5% CO2. Knock-down (KD) of TMEM97 was confirmed by western blot analysis using a rabbit anti-TMEM97 antibody (Novus Bio.; Littleton, Colo.).
# Cell Migration Assay. HCE migration assays were performed in a 48-well micro-chemotaxis chamber (Neuro Probe, Inc.; Cabin John, Md.), following the manufacturer's instructions and following a modification of prior reports. Polyester membranes (Neuro Probe, Inc.; Gaithersburg, Md.) with 12 μm pores were used. Cells were incubated with Hst1 for 6 hours, harvested using Versene (Life Technologies, Corp.; Grand Island, N.Y.), resuspended in RPMI-1640 medium (Life Technologies, Corp.; Grand Island, N.Y.) containing 0.5% FBS. The bottom chamber was loaded with RPMI-1640 media containing 2% FBS, and the filter was laid over the media. […]
# T1 sequence (Q5BJF2 144-176): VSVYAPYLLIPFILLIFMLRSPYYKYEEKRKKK
smiles,measurement,setting,value
CC(C)C[C@H](NC(=O)[C@H](Cc1ccc(O)cc1)NC(=O)[C@H](CC(N)=O)NC(=O)[C@H](CO)NC(=O)CNC(=O)[C@H](Cc1ccc(O)cc1)NC(=O)[C@H](CC(=O)O)NC(=O)CNC(=O)[C@H](Cc1ccc(O)cc1)NC(=O)[C@H](Cc1ccccc1)NC(=O)[C@@H]1CCCN1C(=O)[C@H](Cc1ccccc1)NC(=O)[C@H](CCC(=O)O)NC(=O)[C@H](CCCNC(=N)N)NC(=O)[C@H](Cc1c[nH]cn1)NC(=O)[C@H](CO)NC(=O)[C@H](Cc1c[nH]cn1)NC(=O)[C@H](Cc1c[nH]cn1)NC(=O)[C@H](CCCCN)NC(=O)[C@H](CCC(=O)O)NC(=O)[C@H](Cc1c[nH]cn1)NC(=O)[C@H](Cc1ccccc1)NC(=O)[C@H](CCCCN)NC(=O)[C@H](CCCNC(=N)N)NC(=O)[C@H](CCCNC(=N)N)NC(=O)[C@H](Cc1ccc(O)cc1)NC(=O)CNC(=O)[C@H](Cc1c[nH]cn1)NC(=O)[C@H](Cc1c[nH]cn1)NC(=O)[C@H](CCCNC(=N)N)NC(=O)[C@H](CCCCN)NC(=O)[C@H](CCC(=O)O)NC(=O)[C@H](Cc1c[nH]cn1)NC(=O)[C@H](COP(=O)(O)O)NC(=O)[C@@H](N)CC(=O)O)C(=O)N[C@@H](Cc1ccc(O)cc1)C(=O)N[C@@H](CC(=O)O)C(=O)N[C@@H](CC(N)=O)C(=O)O [Hst1] (H-D[pS]HEKRHHGYRRKFHEKHHSHREFPFYGDYGSNYLYDN-OH; N-terminus and C-terminus assumed),"ceramides (Cer NS, HexCer NS, SM)",[1]; 7-week-old NPC mouse model,significantly increasing
same,"gangliosides (GM3, GM2 and GM1)",[1]; 7-week-old NPC mouse model,significantly increasing
same,"phosphatidylinositol 4,5-bisphosphate (PIP2; 20:4/18:0) levels","[1]; NPC1−/− mouse, 9-week-old",significantly decrease
same,% Rmax,[2],21%
same,Kd,[2],2400 nM
same,% Rmax,[2]; listed as Hst1(1-38),(% Rmax = 22%)
same,effect of TMEM97 mutations on Hst1 binding,[3],did not affect
same,transmigration response in TMEM97 KD cells,[4]; siRNA knock-down of TMEM97,inhibits; also recorded: abolished this response
same,cellular transmigration,[4]; toward 2% FBS stimulus,dose-dependent increase in cellular transmigration
